Experimental data taken from US11234960B2, “Compositions and methods for improving mitochondrial function and treating neurodegenerative diseases and cognitive disorders” (Amazentis SA, priority 2010, dated 2022).

How the values were obtained:
Assay type in all cases: in vivo
[1] = test system: high fat diet (HFD)-fed C57BL6/J mice; test: Body weight and body composition (EchoMRI) in high-fat diet fed mice; details: for body weight gain: HFD-fed mice vs control HFD-fed mice, PE 140 mkd polyphenols gavage (FIG. 17A); for body weight gain / percentage fat mass (EchoMRI): urolithin A 55 mkd food admix, punicalagin 90 mkd gavage; for percentage of lean mass (EchoMRI) / percentage fat mass (EchoMRI): HFD-fed mice; for percentage of lean mass (EchoMRI): 5 weeks of treatment (FIG. 17C); for percentage fat mass (EchoMRI): 5 weeks of treatment, PE 140 mkd gavage (FIG. 17B)
HFD-fed C57BL6/J mice [2] = test: Indirect calorimetry (CLAMS) in HFD-fed mice; details: for respiratory exchange ratio (RER): HFD-fed mice (FIGS. 22A, 22B); for energy expenditure (oxygen consumption, VO2): HFD-fed mice, 8 weeks after initiation of treatment (FIGS. 20A, 20B)
Method: Mice in different treatment groups were administered (i) urolithin A mixed with food (food admix) to reach a dosing of 55 mg/kg body weight/day (mkd); (ii) ellagic acid mixed with food (food admix) to reach a dosing of 75 mkd; (iii) punicalagin (gavage) to reach a dosing of 90 mkd; or (iv) pomegranate extract (PE) (gavage) to reach a dosing of 140 mkd of total polyphenols. […] For animals treated by gavage, gavage was performed daily (7 days/week) between 8:00 and 10:00 a.m.; compounds were mixed with saline solution (0.9% NaCl) and provided at a final volume of 5 mL/kg of body weight.

HFD-fed C57BL6/J mice [3] = test: Plasma biochemistry in HFD-fed mice; details: HFD-fed mice treated for 14 weeks; for plasma levels of triglycerides: fasted 12 h (FIG. 23A); for plasma levels of free fatty acids: fasted 12 h (FIG. 23B)
Method: In addition, plasma biochemistry was performed 14 weeks after the initiation of the treatment using a standard automated clinical chemistry analyzer (Dimension Xpand, SIEMENS). Animals were fasted for 12 h (from 8 pm to 8 am) before blood collection. Approximately 500 μL of blood was collected from vena cava in anesthetized animals under isofluorane anesthesia. Blood was collected in heparinized tubes and immediately placed on wet ice. Plasma was prepared by centrifugation (1500×g, 15 min, 4° C.). Plasma samples were then transferred in clean 1.5 mL microtubes and stored at −80° C. until biochemical measurements were performed on a standard automated clinical chemistry analyzer (Dimension Xpand, SIEMENS) using corresponding kits.

normal mice = test: Contextual fear conditioning (contextual memory) in normal mice; details: punicalagin approx. 90 mg/kg/day 3 months; for contextual memory, freezing 24 hours after training: urolithin A approx. 55 mg/kg/day 2.5 months (FIG. 46); for memory retention, extinction of contextual memory over days 1-5: urolithin A approx. 55 mg/kg/day 2.5 months (FIG. 47)
Method: Beginning at 3 months of age, mice were either fed (i) a standard control diet such as AIN-93G; (ii) a diet containing punicalagin at a concentration of […], so as to deliver an approximate dose of 90 mg/kg/day (for a period of 3 months); or (iii) a diet containing urolithin A at a concentration of […], so as to deliver an approximate dose of 55 mg/kg/day (for a period of 2.5 months). Actual doses vary slightly depending on the food consumption of each individual mouse, as well as the weight of the mouse. Behavioral assessment of cognition was measured after this period.
To examine the effect of pomegranate-derived compounds on memory and cognition, mice were examined for improvements in contextual memory utilizing the contextual fear conditioning assay. Mice were trained in a fear conditioning chamber as described in Example 19.
During training, animals were placed into the chamber one at a time. After four minutes of exploration inside the chamber, one foot shock (2 seconds and 0.4 mA) was administered, followed by a second foot shock (2 seconds and 0.4 mA) one minute later. Thirty seconds after the second foot shock, the mouse was placed back into its home cage.
One day later, trained animals were returned to the chamber for a period of three minutes. During this period mice were monitored for their movement. The amount of time spent immobile or “frozen” was scored as a percentage of the total time (3 minutes) under observation. The time spent immobile is a measure of the strength of the memory of the mice to recall the context in which they were trained.
To determine the effect of these pomegranate-derived compounds on memory retention, normal mice fed either (i) a control diet; (ii) punicalagin (for a period of 3 months) or (iii) urolithin A (for a period of 2.5 months) were studied for their memory recall on days 1, 2, 3, 4 and 5 after the initial contextual fear training.
Animals were placed in the same chamber and context for 3 min daily (same time of day, however no shock this time) for the 5 days that followed the initial testing. Freezing behavior induced by the simple contextual recognition by the animals of the chamber, where they received the initial shock, was measured during each of these daily 3-minute periods. The ability to recognize this environment in the absence of the stimulus is a measurement of contextual memory.

[4] = test system: C57BL6/J mice fed standard chow diet; test: Body composition (EchoMRI) in standard chow diet fed mice; details: 2 weeks of treatment, ellagic acid 75 mkd; for percentage of lean mass (EchoMRI): urolithin A 55 mkd food admix (FIG. 18A); for percentage of fat mass (EchoMRI): urolithin A 55 mkd food admix (FIG. 18B)
From the text: Male C57BL6/J mice were purchased from Charles River Laboratory (L'Arbresle, France) at the age of 7 weeks and acclimatized to the animal facility for 2 weeks before initiation of experiments. Mice were housed in groups of 5 in standard housing conditions, with a 12 hr light-dark cycle and free access to food and water. Beginning at 9 weeks of age, mice were fed a high-fat diet (HFD) (60% kcal from fat; D12492; Research Diets Inc., New Brunswick, N.J., USA) for fourteen weeks. Body weight was monitored weekly.
(§1) Mice in different treatment groups were administered (i) urolithin A mixed with food (food admix) to reach a dosing of 55 mg/kg body weight/day (mkd); (ii) ellagic acid mixed with food (food admix) to reach a dosing of 75 mkd; (iii) punicalagin (gavage) to reach a dosing of 90 mkd; or (iv) pomegranate extract (PE) (gavage) to reach a dosing of 140 mkd of total polyphenols. A typical pomegranate extract used in these experiments had the following composition: polyphenols, 140 mkd; punicalagin, 13.1 mkd; and ellagic acid, 13.2 mkd. For animals treated by gavage, gavage was performed daily (7 days/week) between 8:00 and 10:00 a.m.; compounds were mixed with saline solution (0.9% NaCl) and provided at a final volume of 5 mL/kg of body weight. Mice in high-fat control groups were fed with the same diet as the experimental animals. Mice in corresponding different control groups were administered either high-fat diet alone or high-fat diet plus daily gavage with vehicle (saline). Another control group of mice were fed standard chow diet alone.
Body composition was monitored by EchoMRI (Echo Medical Systems, Houston, Tex., USA) 5 weeks after the initiation of the treatment for high-fat diet fed mice and 2 weeks after the initiation of the treatment for chow diet fed mice. Animals were placed individually into a plastic cylinder and then introduced into an EchoMRI system for about 2 min for body composition scanning (lean and fat mass).

[5] = test system: C57BL6/J mice fed standard chow diet; test: Indirect calorimetry (CLAMS) in standard chow diet fed mice; details: for respiratory exchange ratio (RER): chow diet fed mice (FIGS. 21A, 21B); for energy expenditure (oxygen consumption, VO2): standard chow-fed mice, 2 weeks of treatment (FIGS. 19A, 19B)
Method: as §1
Male C57BL6/J mice were grouped and treated as described in Example 7. In addition, however, basal energy expenditure of mice was measured by indirect calorimetry oxygen consumption, carbon dioxide production, and respiratory exchange ratio), 8 weeks after the initiation of treatment for the HFD-fed mice and 2 weeks after the initiation of treatment for standard show diet-fed mice, using the Comprehensive Laboratory Animal Monitoring System (CLAMS; Columbus Instruments, Columbus, Ohio, USA). Animals were first acclimatized for 22 h to CLAMS cages (room temperature 22° C.±1° C.) starting between 11 to 12 am. Then measurement was performed for at least 20 h in the same condition. Measurement included an entire dark cycle. Parameters measured during CLAMS were the following: (i) Oxygen consumption (VO2 in mL/kg/h): VO2 is directly correlated to energy expenditure; (ii) Carbon dioxide production (VCO2 in mL/kg/h); and (iii) Respiratory Exchange Ratio (RER): VCO2/VO2: RER is an indicator of the use of energy substrate. In a steady state, RER is equivalent to the Respiratory Quotient (RQ). Pure carbohydrate use gives RER=1, whereas pure fat burning yields an RER=0.7. A mixed diet gives a RER=0.85.
As stated above, in addition to oxygen consumption, indirect calorimetry also monitors carbon dioxide production. The ratio between carbon dioxide production (VCO2) and oxygen consumption (VO2) is called Respiratory Exchange Ratio (RER). RER is an excellent indicator of the use of energy substrates. In a steady state, RER is equivalent to the Respiratory Quotient (RQ). […]

SMILES: O=C1O[C@H]2[C@@H]3OC(=O)c4cc(O)c(O)c(O)c4-c4c(O)c(O)c5oc(=O)c6c(c(O)c(O)c7oc(=O)c4c5c76)-c4c(cc(O)c(O)c4O)C(=O)OC[C@H]3OC(O)[C@@H]2OC(=O)c2cc(O)c(O)c(O)c2-c2c1cc(O)c(O)c2O (mixture of isomers) [punicalagin, 2,3 hexahydroxydiphenoyl-4,6-gallagylglucose]
- body weight gain [1]: strong reduction of body weight gain
- percentage of lean mass (EchoMRI) [1]: statistically significant increase in the percentage of lean mass
- percentage fat mass (EchoMRI) [1]: significantly reduced
- respiratory exchange ratio (RER) (HFD-fed C57BL6/J mice [2]): significantly decreased RER
- energy expenditure (oxygen consumption, VO2) (HFD-fed C57BL6/J mice [2]): increased energy expenditure
- plasma levels of triglycerides (HFD-fed C57BL6/J mice [3]): statistically significant improvement
- plasma levels of free fatty acids (HFD-fed C57BL6/J mice [3]): statistically significant improvement
- contextual memory, freezing 24 hours after training (normal mice): significant improvements in contextual memory
- memory retention, extinction of contextual memory over days 1-5 (normal mice): improved memory retention

SMILES: O=c1oc2c(O)c(O)cc3c(=O)oc4c(O)c(O)cc1c4c23 [ellagic acid]
- percentage of lean mass (EchoMRI) [4]: statistically significant increase in the percentage of lean mass
- percentage of fat mass (EchoMRI) [4]: reduction in fat mass
- respiratory exchange ratio (RER) [5]: significantly decreased RER
- energy expenditure (oxygen consumption, VO2) [5]: increased energy expenditure

SMILES: O=c1oc2cc(O)ccc2c2ccc(O)cc12 [urolithin A, 3,8-Dihydroxydibenzo-α-pyrone]
- body weight gain [1]: strong reduction of body weight gain
- percentage of lean mass (EchoMRI) [1]: statistically significant increase in the percentage of lean mass
- percentage fat mass (EchoMRI) [1]: significantly reduced
- percentage of lean mass (EchoMRI) [4]: statistically significant increase in the percentage of lean mass
- percentage of fat mass (EchoMRI) [4]: reduction in fat mass
- respiratory exchange ratio (RER) (HFD-fed C57BL6/J mice [2]): significantly decreased RER
- energy expenditure (oxygen consumption, VO2) (HFD-fed C57BL6/J mice [2]): increased energy expenditure
- respiratory exchange ratio (RER) [5]: significantly decreased RER
- energy expenditure (oxygen consumption, VO2) [5]: increased energy expenditure
- plasma levels of triglycerides (HFD-fed C57BL6/J mice [3]): statistically significant improvement
- plasma levels of free fatty acids (HFD-fed C57BL6/J mice [3]): statistically significant improvement
- contextual memory, freezing 24 hours after training (normal mice): significant improvements in contextual memory
- memory retention, extinction of contextual memory over days 1-5 (normal mice): improved memory retention
